The record followed here is publication doi:10.1101/2024.02.28.582612v1 (biorxiv, 2024).

For the experiment, the target named is T1, Mtb cytochrome bd (Mycobacterium tuberculosis, UniProt L7N662+O06139).
T1 sequence (L7N662 1-485): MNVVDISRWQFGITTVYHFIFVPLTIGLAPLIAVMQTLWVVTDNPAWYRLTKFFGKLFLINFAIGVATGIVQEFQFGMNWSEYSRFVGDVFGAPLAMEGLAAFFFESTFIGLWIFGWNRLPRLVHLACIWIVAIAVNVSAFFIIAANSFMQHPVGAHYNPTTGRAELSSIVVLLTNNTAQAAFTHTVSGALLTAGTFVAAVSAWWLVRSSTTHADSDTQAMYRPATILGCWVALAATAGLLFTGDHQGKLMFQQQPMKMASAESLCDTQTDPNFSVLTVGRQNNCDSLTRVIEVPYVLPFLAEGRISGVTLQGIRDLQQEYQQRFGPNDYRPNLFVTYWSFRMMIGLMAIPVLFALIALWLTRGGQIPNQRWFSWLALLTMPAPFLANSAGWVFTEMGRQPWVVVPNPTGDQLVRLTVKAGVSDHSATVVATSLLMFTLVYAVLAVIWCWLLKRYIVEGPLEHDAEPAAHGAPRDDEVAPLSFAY
T1 sequence (O06139 1-346): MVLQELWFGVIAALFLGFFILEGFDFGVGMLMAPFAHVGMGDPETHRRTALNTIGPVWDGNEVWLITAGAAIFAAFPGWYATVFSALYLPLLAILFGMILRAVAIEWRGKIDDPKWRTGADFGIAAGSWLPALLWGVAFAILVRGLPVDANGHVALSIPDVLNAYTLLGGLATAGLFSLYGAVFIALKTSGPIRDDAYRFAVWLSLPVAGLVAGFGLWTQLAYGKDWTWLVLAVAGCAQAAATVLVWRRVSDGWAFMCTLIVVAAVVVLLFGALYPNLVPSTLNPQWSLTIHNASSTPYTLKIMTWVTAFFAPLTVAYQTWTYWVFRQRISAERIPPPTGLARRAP
It counts as biochemical. The conditions noted are these: read-out: % remaining OCR at 10 μM.

As for `CC(C)(c1cc(Br)c(OCC(O)CN2CCN(Cc3ccccc3)CC2)c(Br)c1)c1cc(Br)c(OCC(O)CN2CCN(Cc3ccccc3)CC2)c(Br)c1` (stereo not drawn) [F0777-1198], the remaining activity at 10 µM turned out to be 51%. For `C=CCSc1ncc(-c2ccccc2)n1-c1ccc(C)cc1` [F2964-1180] the value was 50.6%. Regarding `CCOc1ccc(-c2nc(CSc3nc4ccccc4c(=O)n3CCCN3CCCC3=O)c(C)o2)cc1` [F3382-2259], the remaining activity at 10 µM worked out at 30.4%.
